Results on six compounds are retold here after patent publication EP0729465B1, “PYRONE DERIVATIVES AS PROTEASE INHIBITORS AND ANTIVIRAL AGENTS” (PARKE, DAVIS & COMPANY, priority 1993, dated 1995).

Values after ≈ are worked out from the molar mass of the structure shown.

The test system of assay [1] is Staphylococcus aureus H228. Description: Antibacterial activity, microtitration dilution method (MIC). Format: cell-based. An excerpt:
(§1) The compounds of the invention display antibacterial activity when tested by the microtitration dilution method as described in Heifetz, et al., Antimicr. Agents. & Chemoth. 6:124 (1974) which is incorporated herein by reference.
(§2) By use of the above referenced method, the following minimum inhibitory concentration values (MICs in µg/mL) were obtained for representative compounds of the invention vs. clinically relevant gram positive pathogens which have become highly resistant to conventional therapy in recent years.

For assay [2], the system named is Enterococcus foecalis MGH2. Described as above. Type of assay: cell-based.
Source text: as §1, §2

For assay [3], the system named is Streptococcus pyogenes C203. Described as above. Format: cell-based.
Source text: as §1, §2

For assay [4], the system named is Staphylococcus aureus UC-76. Described as above. Format: cell-based.
Source text: as §1, §2

The test system of assay [5] is Streptococcus pneumonia 5V-1. The description is as above. Format: cell-based.
Source text: as §1, §2

For the next assay, the target named is T1, HIV-I Protease (Human immunodeficiency virus type 1 group M subtype B, UniProt P04585).
T1 construct: HIV-I Protease: The enzyme is obtained from Bachem Bioscience Inc; purchased Bachem Bioscience Inc
Description: HIV protease inhibition (hydrolysis of undecapeptide substrate, HPLC readout). Format: biochemical. The settings on record: 40 µM substrate, pH 4.7, 37 °C, 5 minutes; read-out: 50% Inhibition Concentration (Averaged). How it is done:
• DTT Buffer: 1.0 mM dithiothreitol (DTT) was prepared fresh daily in 0.1% polyethylene glycol (mw 8000) 80 mM NaOAc, 160 mM NaCl, 1.0 mM EDTA, and brought to pH 4.7 with HCl. • HIV-I Protease: The enzyme is obtained from Bachem Bioscience Inc. The undiluted enzyme is thawed from -80 °C and diluted 50-fold with DTT buffer. The solution is always kept at 0 °C on ice water and used in the experiment within 20 minutes after thawing. • Enzyme Substrate: Substrate III from Bachem Bioscience Inc. is the undecapeptide H-His-Lys-Ala-Arg-Val-Leu-p-Nitrophenylalanine-Glu-Ala-Norleucine-ser-NH2 (> 97 % purity). A 200. µM stock solution in DTT buffer is prepared and stored on ice. Substrate solution is prepared fresh daily. • Test Compound: 10 mM inhibitor (I) in dimethyl sulfoxide (DMSO) is diluted to 200 µM with DTT buffer. From the 200 µM stock solution is made a 10 µM stock solution with 2% DMSO in DTT buffer. The two inhibitor solutions are used to make final [I] = 100, 50, 20, 10, 5, 2, 1, 0.5 and 0 µM with 2% DMSO in DTT buffer in each reaction well (total inhibitor volume of 50 µl).
To each reaction well is added 20 µl of substrate (final concentration of 40 µM), 50 µl of inhibitor (at a concentration such that final dilution will produce the test concentration) and 20 µl of DTT buffer. The reaction plate (96 wells) is incubated at 37 °C for at least 5 minutes.
10 µl of the diluted protease is added to the reaction well while the reaction plate is shaking. Once shaken for 10 seconds, the plate is returned to the heating block at 37 °C. (Final reaction volume = 100 µl.)
The reaction is incubated for 5 minutes at 37 °C. The reaction is stopped by placing the reaction plate on the shaker and adding 20 µl of 10% trifluoroacetic acid (TFA) and shaking for 10 seconds. The amount of proteolysis is then determined by separation of noncleaved substrate and two cleaved products with reverse-phase HPLC, while measuring absorbance at 220 nm to determine the relative peak areas of the three components. The relative peak areas are used to calculate % conversion to product as a function of inhibitor concentration. The data is plotted as % Control (the ratio of % conversion in the presence and absence of inhibitor x 100) versus inhibitor concentration and fit with the equation Y= 100/1+(X/IC50)^A, where IC50 is the inhibitor concentration at 50% inhibition and A is the slope of the inhibition curve.

In a further assay the test system is HIV-1iiib. Description: Anti-HIV-1 activity, acute infection of H9 cells. Type of assay: cell-based. To be noted: Human immunodeficiency virus 1; H9 cell line infected with HIV-1iiib; reverse transcriptase assay at 4 and 7 days post infection; read-out: Concentration for 50% Protection. How it is done:
Using the general methods of Pauwels et al., (J. Virol. Methods, 16, 171-185, 1987) and Mann et al. (AIDS Research and Human Retroviruses, 253-255, 1989) anti-viral assays of acute HIV-1 infection were performed in the H9 cell line. Cultures were batch infected in 1 ml of RPM1 1640 media/10% fetal calf serum containing 10^7 cells and 10^5 infectious doses of HIV-1iiib for an effective multiplicity of infection of 0.01. After 2 hours of viral absorption, cells were washed once and plated in 96-well microtiter plates at a density of 10^4 cells per well. Test compounds were added to produce the desired concentration of drug and 0.2% DMSO in a final volume of 200 µl. Uninfected parallel cultures were maintained for XTT cytotoxicity assay at 7 days post infection. Cultures were tested for viral replication by reverse transcriptase assay at 4 and 7 days post infection.

The mark [6] stands for this setting: read-out: minimum inhibitory concentration (MIC).

For “3-[1-(Cyclohexylthio)-3-methylbutyl]-4-hydroxy-6-phenyl-2H-pyran-2-one [Example 128]”, the “minimum inhibitory concentration (MIC)” value in assay [1] was found to be 12.5 µg/mL; in assay [2], 25 µg/mL; in assay [3] it was 25 µg/mL; in assay [4] it was 12.5 µg/mL; in assay [5], 25 µg/mL.
For `O=c1oc(-c2ccccc2)cc(O)c1C(SC1CCCC1)C1CCCC1` (racemic) [Example 151, 3-[Cyclopentyl(cyclopentylthio)methyl]-4-hydroxy-6-phenyl-2H-pyran-2-one], at HIV-I Protease, the IC50 was determined as 230 nM. In addition, the EC50 with HIV-1iiib worked out at 14000 nM.
For the compound `CC(C)(C)CC(SC1CCCCC1)c1c(O)cc(-c2ccccc2)oc1=O` (racemic) [Example 92, 3-[1-(Cyclohexylthio)-3,3-dimethylbutyl]-4-hydroxy-6-phenyl-2H-pyran-2-one], the MIC in assay [1] (setting [6]) was 25 µg/mL (≈ 64.7 µM); in assay [2] (setting [6]), 100 µg/mL (≈ 259 µM); in assay [3] (setting [6]) it was 50 µg/mL (≈ 129 µM); in assay [4] (UC76, read-out: minimum inhibitory concentration (MIC)), 25 µg/mL (≈ 64.7 µM); in assay [5] (Streptococcus pneumoniae, 5V1, read-out: minimum inhibitory concentration (MIC)), 50 µg/mL (≈ 129 µM).
`O=c1oc(-c2ccc(OCc3cccnc3)cc2)cc(O)c1SCCc1ccccc1` [Example 64, 4-Hydroxy-3-[(2-phenylethyl)thio]-6-[4-(3-pyridinylmethoxy)phenyl]-2H-pyran-2-one]: at HIV-I Protease, the IC50 was 1500 nM. For the same compound, the EC50 with HIV-1iiib worked out at 3000 nM.
The like results for `CC(C)CC(Sc1ccccc1)c1c(O)cc(-c2ccccc2)oc1=O` (racemic) [Example 73, 4-Hydroxy-3-[3-methyl-1-(phenylthio)butyl]-6-phenyl-2H-pyran-2-one] were, in that order, 410 nM and 15000 nM.
Regarding `CC(C)c1ccccc1Sc1c(O)cc(-c2ccc(OCc3cccnc3)cc2)oc1=O` [Example 157, 4-Hydroxy-3-[(2-isopropylphenyl)thio]-6-[4-(pyridin-3-ylmethoxy)phenyl]-2H-pyran-2-one], the IC50 on HIV-I Protease came out at 68 nM. Moreover, in the assay with HIV-1iiib, the EC50 came to 650 nM.
